Measurements as given in US10238635B2, “N-carbamoylated urethane for treating a neuroinflammatory disease” (Kyungpook National University Industry—Academic Cooperation …, priority 2016, dated 2019).
Entries after “also recorded” stand apart in the source; their conditions may differ. One block for each molecule: values may come before it.

Tests used:
BV-2 microglial cells [1] = assay: LPS-induced NO production in BV-2 microglial cells (Griess, nitrite); assay type: cell-based, murine; conditions: LPS 100 ng/ml; for inhibition at 10 µM: Mus musculus, BV-2 microglial cells, 10 μM compound, LPS-increased NO production = 100%
Experimental: (§1) BV-2 cells, a murine microglial cell line, were cultured in Dulbecco's modified Eagle's medium (DMEM) containing 5% heat-inactivated FBS and 50 μg/ml gentamicin at 37° C. Rat microglial HAPI cells and mouse primary astrocytes were cultured in DMEM (10% FBS, 10 U/ml penicillin, 10 μg/ml streptomycin) at 37° C. All animals and experimental procedures were approved by the Institutional Review Board of Kyungpook National University School of Pharmacy and were carried out in accordance with the NIH Guide for the Care and Use of Laboratory Animals. All animals were maintained under temperature- and humidity-controlled conditions.
(§2) The production of nitric oxide (NO) was estimated by measuring the amount of nitrite, which is a NO metabolite. The BV-2 cells (40,000 cells/well in 96-well plates) were treated with 100 ng/ml of LPS in the presence or absence of the compounds from the library. At the end of a 24 hour incubation period, 50 μl of the cell culture media was mixed with an equal volume of a Griess reagent in each well. The light absorbance was measured at 540 nm, while a standard curve was generated using sodium nitrite.
(§3) Specifically, the BV-2 cells were cultured in 96-well plates and stimulated with LPS at a concentration of 100 ng/ml. The BV-2 cells stimulated with LPS were treated with 3,500 low molecular weight substances (FIG. 1).
While an increased NO production by LPS is designated as 100%, a suppressed amount of NO production by each derivative of Compound 1 is presented by its respective percentage.

BV-2 cells = assay: Cell viability, MTT assay; assay type: cell-based, murine
Experimental: Cell viability was assessed using MTT assay. After treatment with LPS and the compounds, the culture solution was aspirated and removed. MTT (0.5 mg/ml in PBS) was added to the cells and incubated at 37° C. for 4 hours. The resulting formazan was dissolved in DMSO. The absorbance was determined at 570 nm using a microplate reader.
as §3

[2] = Brain distribution and half-life after intraperitoneal administration; assay type: in vivo; conditions: 2 mg/kg, previous study by the inventors
BV-2 microglial cells [3] = assay: RT-PCR of LPS-induced pro-inflammatory gene expression in BV-2 cells; assay type: cell-based, murine; conditions: pre-treatment
Experimental: (§4) Total RNA was extracted from microglial cells or brain tissues using TRIZOL reagent (Invitrogen, Carlsbad, Calif., USA). Reverse transcription (RT) was performed using Superscript II reverse transcriptase (Invitrogen) and Oligo (dT) primers. Traditional polymerase chain reaction (PCR) amplification was performed using specific primer sets at annealing temperature 55-60° C. for 20-30 cycles. PCR was performed using C1000 Touch Thermal Cycler. For the PCR product analysis, 10 μl of each PCR reaction was electrophoresed on 1% agarose gel and detected under ultraviolet light.
(§5) Real-time RT-PCR was performed using Perfect Real-Time One Step SYBR Primer Script RT-PCR Kit (Takara Bio, Otsu, Shiga, Japan).
The primer sequences were designed based on published cDNA sequences (See Table 1).
Next, the effect of Compound 1 on the LPS-induced expression of pro-inflammatory mediators was examined in the BV-2 microglial cells.

[4] = tested on: LPS-induced mouse neuroinflammation model; assay: LPS-induced mouse neuroinflammation model (Iba-1 immunostaining, real-time RT-PCR of brain); assay type: in vivo, C57BL/6 mice; conditions: 72 h after LPS
Experimental: as §4, §5
LPS was intraperitoneally administered according to a conventionally known method for producing neuroinflammatory mouse model. All experiments were performed on C57BL/6 mice aged 9-11 weeks, and the animals were supplied from Koatech. In each experiment, the animals were divided into four groups (Group 1, vehicle-treated group; Group 2, Compound 1-treated group; Group 3, LPS & vehicle-treated group; Group 4, LPS & Compound 1-treated group). Compound 1 (2 mg/kg) was dissolved in saline containing 5% DMSO and 40% polyethylene glycol and administered intraperitoneally daily for 4 days. LPS (5 mg/kg) induced a neuroinflammatory animal model by intraperitoneally administering its single dose on the second day.
For histological analysis, 72 hours after the administration of LPS, the animals were anesthetized and perfused transcardially first with saline and then with 4% paraformaldehyde. The activity of microglial cells was evaluated using Iba-1 staining. At least three animals were included in each experimental group. […]
The mice were then sacrificed, and the Iba-1 levels were analyzed as molecular markers of microglia activation (FIG. 6B).
The Iba-1-stained cells whose intensity values were above an arbitrarily defined threshold were counted from each of three brain regions, including the cortex, hippocampus, and substantia nigra.

[5] = tested on: HAPI rat microglial cells; assay: LPS-induced NO release in HAPI cells; assay type: cell-based; conditions: various concentrations, 24 hours
Experimental: as §1
(§6) The present inventors confirmed the anti-neuroinflammatory effect of Compound 1, which was identified in Example 1, in the HAPI rat microglial cells and the RAW264.7 macrophage cells. The cells were cultured in 96-well plates, followed by treatment with various concentrations of Compound 1 with LPS, respectively. After 24 hours of such a treatment, NO release was examined.

[6] = tested on: RAW264.7 macrophage cells; assay: LPS-induced NO release in RAW264.7 cells; assay type: cell-based; conditions: various concentrations, 24 hours
Experimental: as §6

astrocytes = assay: NO, TNF-α production and Ym-1 expression in astrocytes; assay type: cell-based, mouse
Experimental: as §1
The mouse primary microglial cells were cultured under mild conditions according to known methods. In brief, the forebrains of 3-5 day-old C57BL/6 mice were harvested and mechanically pulverized using a nylon mesh. The cells were seeded onto a poly-L-lysine-coated flasks and then cultured. After in vitro culture of 10-14 days, the microglial cells were isolated from the mixed glial cultures by shaking for 6 hours at 200 rpm. Astrocytes remained attached to the bottom of the culture flask were used for the following experiments. 3. High Throughput Screening
as §2, with “At the end of a 24 hour incubation period, 50 μl of the cell culture media was mixed with an equal volume of a Griess reagent in each well.” left out
The BV-2 cells or astrocytes were treated with LPS and Compound 1, followed by culturing for 24 hours. The TNF-α levels in the culture media were measured using a rat monoclonal anti-mouse TNF-α antibody as a primary antibody and a goat anti-mouse TNF-α antibody as a secondary antibody.
Total RNA was extracted from microglial cells or brain tissues using TRIZOL reagent (Invitrogen, Carlsbad, Calif., USA). […] For the PCR product analysis, 10 μl of each PCR reaction was electrophoresed on 1% agarose gel and detected under ultraviolet light. […]

[7] = 2 mg/kg i.p., LPS 5 mg/kg, real-time RT-PCR

Structure (SMILES): CCC(OC(=O)N(Cc1ccccc1)C(=O)Nc1ccc(OC)c(OC)c1)c1cc(-c2ccc(OC(C)(C)C(=O)O)cc2)no1 (centres unmarked) [3,4-dimethoxy, 2-(4-(5-(1-((benzyl((3,4-dimethoxymethylphenyl)carbamoyl)carbamoyl)oxy)propyl)isoxazol-3-yl)phenoxy)-2-methylpropanoic acid]
inhibition at 10 µM (BV-2 microglial cells [1]): 60.7%

Structure (SMILES): CCC(OC(=O)N(Cc1ccccc1)C(=O)Nc1ccc2c(c1)OCO2)c1cc(-c2ccc(OC(C)(C)C(=O)O)cc2)no1 (centres unmarked) [3,4-methylenedioxy]
inhibition at 10 µM (BV-2 microglial cells [1]): 74.6%

Structure (SMILES): CCC(OC(=O)N(Cc1ccccc1)C(=O)Nc1cc(OC)cc(OC)c1)c1cc(-c2ccc(OC(C)(C)C(=O)O)cc2)no1 (centres unmarked) [3,5-dimethoxy]
inhibition at 10 µM (BV-2 microglial cells [1]): 56.7%

Structure (SMILES): CCC(OC(=O)N(Cc1ccccc1)C(=O)Nc1ccc(C(F)(F)F)cc1)c1cc(-c2ccc(OC(C)(C)C(=O)O)cc2)no1 (centres unmarked) [4-trifluoromethyl, 2-(4-(5-(1-((benzyl((4-trifluoromethylphenyl)carbamoyl)carbamoyl)oxy)propyl)isoxazol-3-yl)phenoxy)-2-methylpropanoic acid]
inhibition at 10 µM (BV-2 microglial cells [1]): 52.7%

brain distribution [2]: 0.19 µg/h/mL
half-life ([2]; brain, ip): 314 min
Structure (SMILES): CCC(OC(=O)N(Cc1ccccc1)C(=O)Nc1ccccc1)c1cc(-c2ccc(OC(C)(C)C(=O)O)cc2)no1 (centres unmarked) [Compound 1, 2-(4-(5-(1-((benzyl(phenylcarbamoyl)carbamoyl)oxy)propyl)isoxazol-3-yl)phenoxy)-2-methylpropanoic acid]
cytotoxicity (BV-2 cells): low in cytotoxicity
expression of IL-1β gene (BV-2 microglial cells [3]): significantly reduced
expression of TNF-α gene (BV-2 microglial cells [3]): significantly reduced
expression of iNOS gene (BV-2 microglial cells [3]): significantly reduced
LPS-induced microglial activation (Iba-1 positive cells) ([4]; 2 mg/kg i.p. daily for 4 days, LPS 5 mg/kg i.p., cortex, hippocampus, substantia nigra): significantly reduced; also recorded: effectively blocked
expression level of IL-1β mRNA in brain [4, 7]: significantly diminished
expression level of TNF-α mRNA in brain [4, 7]: significantly diminished
LPS-induced NO release [5]: inhibits the LPS-induced NO release in the microglial and macrophage cells in a dose-dependent manner
LPS-induced NO release [6]: inhibits the LPS-induced NO release in the microglial and macrophage cells in a dose-dependent manner
IL-4-induced Ym-1 expression in astrocytes (astrocytes; IL-4): increasing
LPS-induced NO production in astrocytes (astrocytes; LPS): inhibited
LPS-induced TNF-α production in astrocytes (astrocytes; LPS): inhibited
inhibition of NO production in microglial cells (high-throughput screening) (BV-2 microglial cells [1]; BV-2 cells): effectively inhibiting NO production
inhibition at 10 µM (BV-2 microglial cells [1]): 73.4%

Structure (SMILES): CCC(OC(=O)N(Cc1ccccc1)C(=O)Nc1ccccc1OC)c1cc(-c2ccc(OC(C)(C)C(=O)O)cc2)no1 (centres unmarked) [Compound 2-methoxy, 2-(4-(5-(1-((benzyl((2-methoxyphenyl)carbamoyl)carbamoyl)oxy)propyl)isoxazol-3-yl)phenoxy)-2-methylpropanoic acid]
inhibition at 10 µM (BV-2 microglial cells [1]): 20.9%

Structure (SMILES): CCC(OC(=O)N(Cc1ccccc1)C(=O)Nc1cccc(OC)c1)c1cc(-c2ccc(OC(C)(C)C(=O)O)cc2)no1 (centres unmarked) [Compound 3-methoxy, 2-(4-(5-(1-((benzyl((3-methoxyphenyl)carbamoyl)carbamoyl)oxy)propyl)isoxazol-3-yl)phenoxy)-2-methylpropanoic acid]
inhibition at 10 µM (BV-2 microglial cells [1]): 25.6%

Structure (SMILES): CCC(OC(=O)N(Cc1ccccc1)C(=O)Nc1ccc(Cl)cc1)c1cc(-c2ccc(OC(C)(C)C(=O)O)cc2)no1 (centres unmarked) [Compound 4-chloro]
inhibition at 10 µM (BV-2 microglial cells [1]): 67.8%

Structure (SMILES): CCC(OC(=O)N(Cc1ccccc1)C(=O)Nc1ccc(OC)cc1)c1cc(-c2ccc(OC(C)(C)C(=O)O)cc2)no1 (centres unmarked) [Compound 4-methoxy, 2-(4-(5-(1-((benzyl((4-methoxyphenyl)carbamoyl)carbamoyl)oxy)propyl)isoxazol-3-yl)phenoxy)-2-methylpropanoic acid]
inhibition at 10 µM (BV-2 microglial cells [1]): 46.7%

Structure (SMILES): CCC(OC(=O)N(Cc1ccccc1)C(=O)Nc1ccc(C)cc1)c1cc(-c2ccc(OC(C)(C)C(=O)O)cc2)no1 (centres unmarked) [Compound 4-methyl, 2-(4-(5-(1-((benzyl((4-methylphenyl)carbamoyl)carbamoyl)oxy)propyl)isoxazol-3-yl)phenoxy)-2-methylpropanoic acid]
inhibition at 10 µM (BV-2 microglial cells [1]): 46.7%

Structure (SMILES): CCCCc1ccc(NC(=O)N(Cc2ccccc2)C(=O)OC(CC)c2cc(-c3ccc(OC(C)(C)C(=O)O)cc3)no2)cc1 (centres unmarked) [Compound 4-n-butyl, 2-(4-(5-(1-((benzyl((4-n-butylmethylphenyl)carbamoyl)carbamoyl)oxy)propyl)isoxazol-3-yl)phenoxy)-2-methylpropanoic acid]
inhibition at 10 µM (BV-2 microglial cells [1]): 58.3%
